Measured values taken from PMC5627009, “Cyclotides Isolated from an Ipecac Root Extract Antagonize the Corticotropin Releasing Factor Type 1 Receptor” (Frontiers in Pharmacology, 2017).

Legend:
human CRF1R [1] = target: T1, human CRF1R (Homo sapiens, UniProt P34998); assay: CRE luciferase reporter gene assay (CRF1R antagonism/agonism); assay type: cell-based; conditions: fraction F, relative to the other identified cyclotides
T1 construct: expressed in transfected cells; host or cells: HEK293
T1 sequence (P34998 24-415): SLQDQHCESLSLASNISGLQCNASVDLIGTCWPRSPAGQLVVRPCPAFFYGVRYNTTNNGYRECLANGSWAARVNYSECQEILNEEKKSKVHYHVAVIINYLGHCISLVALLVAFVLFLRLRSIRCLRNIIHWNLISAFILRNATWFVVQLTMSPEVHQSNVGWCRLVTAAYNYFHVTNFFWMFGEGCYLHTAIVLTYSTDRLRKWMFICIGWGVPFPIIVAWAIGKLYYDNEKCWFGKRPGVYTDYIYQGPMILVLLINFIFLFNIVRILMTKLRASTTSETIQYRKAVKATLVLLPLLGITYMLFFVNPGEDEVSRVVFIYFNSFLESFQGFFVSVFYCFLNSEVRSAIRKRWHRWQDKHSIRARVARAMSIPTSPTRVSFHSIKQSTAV
Method: The ipecac extract was tested for its modulating effect on CRF1R signaling using a cell-based luciferase reporter assay. HEK293 cells transiently transfected with an C-terminally GFP-tagged human CRF1R and a luciferase-coupled cAMP response element (CRE) were stimulated with varying concentrations of ipecac extract (0.01–50 μg mL^-1) in the presence and absence of 50 nM endogenous corticotropin-releasing factor (CRF) ligand. Concentration-dependent inhibition of receptor signaling was determined by measuring luciferase induction and accounting for the fluorescence of receptor-positive cells. The amount of luminescence of the control samples incubated with hormone alone was defined as 100% efficacy (Figure 1E). The inhibitory potency of the corresponding cyclotide-containing ipecac extract was measured and normalized relative to the efficacy of the control. […] The inhibitory potency of the ipecac extract to antagonize CRF1R signaling was determined as half-maximal concentration (IC50) as 2.0 μg mL^-1 (Figure 1F). […]
After confirming the presence of cyclotides in the ipecac extract, we aimed to isolate the cyclotides responsible for CRF1R antagonism using a bioassay-guided fraction approach. […] All fractions were analyzed by analytical HPLC and MALDI-TOF MS. […] Fractions C and D were determined to contain at least two cyclotides (Figures 4B,C and Supplementary Figure 1). […]

human V2R = assay: cAMP accumulation assay at vasopressin V2 receptor (LANCE Ultra cAMP); assay type: cell-based; conditions: HEK293 transiently expressing human V2R, caripe 8 26 nM & 260 nM, 30 min, 23°C, five or more experiments in triplicate, not statistically different (One-way ANOVA)
Method: Receptor-mediated cAMP accumulation was measured in HEK293 cells transiently transfected with the human CRF1R (with C-terminal GFP tag) using the LANCE® Ultra cAMP Detection kit (PerkinElmer, Waltham, MA, United States). To prepare for experiments, HEK293 cells were grown to confluence in a 6-well plate, followed by transfection with 2.5 μg of plasmid DNA per well using the Lipofectamine® 2000 transfection reagent (Thermo Fisher Scientific). After 4–6 h post-transfection, the cell media was replaced, followed by dissociation of cells via trituration and division of the cell suspension to avoid overcrowding over the subsequent 48 h of incubation at 37°C and 5% CO2. On the day of assay, cells were dissociated with phosphate buffered saline- (PBS-)EDTA solution (137 mM NaCl, 2.7 mM KCl, 10 mM Na2HPO4, 1.8 mM KH2PO4, 1 mM EDTA) and re-suspended in stimulation buffer (1.26 mM CaCl2, 0.49 mM MgCl2, 0.41 mM MgSO4, 5.33 mM KCl, 0.44 mM KH2PO4, 4.17 mM NaHCO3, 138 mM NaCl, 0.34 mM Na2HPO4, 5.56 mM D-glucose, 5 mM HEPES, 0.5 mM IBMX, 0.1% BSA; pH 7.4). […] After incubation, the plate was read in a Flexstation 3 plate reader (Molecular Devices, Sunnyvale, CA, United States).
Data from cellular assays were analyzed using GraphPad Prism 7.01 (GraphPad Software, San Diego, CA, United States). […]

human CRF1R [2] = target: T1, human CRF1R; assay: cAMP accumulation assay at CRF1R (LANCE Ultra cAMP); assay type: cell-based
Method: Receptor-mediated cAMP accumulation was measured in HEK293 cells transiently transfected with the human CRF1R (with C-terminal GFP tag) using the LANCE® Ultra cAMP Detection kit (PerkinElmer, Waltham, MA, United States). To prepare for experiments, HEK293 cells were grown to confluence in a 6-well plate, followed by transfection with 2.5 μg of plasmid DNA per well using the Lipofectamine® 2000 transfection reagent (Thermo Fisher Scientific). After 4–6 h post-transfection, the cell media was replaced, followed by dissociation of cells via trituration and division of the cell suspension to avoid overcrowding over the subsequent 48 h of incubation at 37°C and 5% CO2. On the day of assay, cells were dissociated with phosphate buffered saline- (PBS-)EDTA solution (137 mM NaCl, 2.7 mM KCl, 10 mM Na2HPO4, 1.8 mM KH2PO4, 1 mM EDTA) and re-suspended in stimulation buffer (1.26 mM CaCl2, 0.49 mM MgCl2, 0.41 mM MgSO4, 5.33 mM KCl, 0.44 mM KH2PO4, 4.17 mM NaHCO3, 138 mM NaCl, 0.34 mM Na2HPO4, 5.56 mM D-glucose, 5 mM HEPES, 0.5 mM IBMX, 0.1% BSA; pH 7.4). Stimulation of cAMP accumulation via the human CRF1R and the human V2R used 500 cells and 300 cells (expressing these receptors) per well, respectively, in 384-well white Cellstar® plates (Greiner Bio-One, Kremsmuenster, Austria). Cells were incubated with the respective cognate receptor agonist peptides, in the absence and presence of cyclotide, for 30 min at 23°C in a final volume of 10 μL of stimulation buffer. Termination of cAMP accumulation was performed with the addition of 5 μL of Eu-cAMP tracer solution and 5 μL of ULight-anti-cAMP antibody solution, each prepared in detection buffer, followed by incubation of the plate for 1 h at 23°C with the lid on. After incubation, the plate was read in a Flexstation 3 plate reader (Molecular Devices, Sunnyvale, CA, United States).
Data from cellular assays were analyzed using GraphPad Prism 7.01 (GraphPad Software, San Diego, CA, United States). Concentration-response curve data were fitted to the three-parameter logistic equation to derive estimates of potency (LogIC50, luciferase; LogEC50, cAMP) and efficacy (Emax), relative to the maximal agonist control response. CRF LogEC50 values in the absence and presence of caripe 8 were statistically compared via extra sum-of-squares F test analysis. Other statistical analyses were performed as appropriate using one-way analysis of variance (ANOVA) with Bonferroni’s post-test, and significance taken as p < 0.05.

vasopressin V1a receptor = conditions: ref Koehbach et al. (2013b); cited from earlier work
Excerpt: (§1) Cyclotides are plant-derived cyclic peptides that are currently of great interest as lead molecules and peptide scaffolds for pharmaceutical drug development ([Thell et al., 2016]; [Craik and Du, 2017]). They were first isolated from O. affinis (Rubiaceae), a plant used as herbal preparation (‘kalata-kalata’) in traditional Congolese medicine for its uterotonic properties ([Gran, 1970]; [Craik et al., 1999]; [Gran et al., 2000]). Evidence-based proof of the plant’s traditional use in childbirth and post-partum care was provided in 2013; [Koehbach et al. (2013b)] isolated the cyclotide kalata B ...

oxytocin receptor = conditions: ref Koehbach et al. (2013b); cited from earlier work
Excerpt: as §1

Substance	relative effectiveness as inhibitor of CRF1R-mediated luciferase activity (human CRF1R [1])	effect on arginine-vasopressin-stimulated cAMP accumulation (human V2R; AVP 50 pM)	effect on forskolin-stimulated cAMP accumulation (human V2R; forskolin 300 nM)	fold reduction of CRF potency (human CRF1R [2]; 260 nM caripe 8, CRF concentration-response, HEK293 with human CRF1R, 30 min, 23°C, pH 7.4, six independent experiments in triplicate)	effect on CRF maximal response (human CRF1R [2]; 260 nM caripe 8, CRF concentration-response, six experiments in triplicate)	difference of CRF LogEC50 in absence and presence of caripe 8 (human CRF1R [2]; 260 nM caripe 8, extra sum-of-squares F test, six experiments in triplicate)	inhibition of CRF1R-mediated cAMP response to CRF (human CRF1R [2]; 2.6, 26 and 260 nM cyclotide with an EC50 / approximate EC80 (Fig. 6A) of CRF, 30 min, 23°C, three experiments in triplicate)	effect on cAMP accumulation in combination with submaximal forskolin (human CRF1R [2]; HEK293, human CRF1R, submaximal agonist concentrations of forskolin)	intrinsic activity in the cAMP assay (human CRF1R [2]; HEK293 transiently expressing human CRF1R, cyclotide alone, 30 min, 23°C, pH 7.4)	mode of antagonism at CRF1R (human CRF1R [2]; suggested from modest and limited antagonism)	limit of concentration-dependent inhibition of CRF-mediated cAMP response (data not shown) (human CRF1R [2]; titration with CRF, data not shown)	affinity and potency at vasopressin V1a receptor (vasopressin V1a receptor)	mode of action at vasopressin V1a receptor (vasopressin V1a receptor)	affinity and potency at oxytocin receptor (oxytocin receptor)	mode of action at oxytocin receptor (oxytocin receptor)
GVIPCGESCVFIPCITAAI–GCSCKKKVCYRN (bicyclic or more) [caripe 8, natural bracelet cyclotide isolated from fraction F of ipecac root extract]	the most effective inhibitor	not altered	not altered	approximately 4.5 fold	lack of effect	significantly different from each other (p < 0.05)	modest concentration-dependent inhibition	no effect	did not exhibit any intrinsic activity	does not interact competitively with the CRF binding site	observed to reach a threshold				
kalata B7												moderate affinity and potency (μM-concentration range)	partial agonist	moderate affinity and potency (μM-concentration range)	partial agonist
